# Assays:
# [1] = system: 2,985 participants free of prevalent diabetes at baseline; experiment: Cardiovascular Health Study: plasma phospholipid fatty acids and incident diabetes mellitus (Cox proportional-hazards); assay type: in vivo, human
# Method: Plasma phospholipid fatty acids, anthropometry, blood lipids, inflammatory markers, and glucose-insulin levels were measured at baseline using standardized methods. Independent determinants of trans-palmitoleate and relationships of trans-palmitoleate with metabolic risk factors were investigated using multivariable-adjusted linear regression.
# Multivariable model adjusted for age (years), gender (male/female), race (white/nonwhite), education (<high school, high school, some college, college graduate), enrollment site (four sites), smoking (never, former, current), body mass index (kg/m^2), waist circumference (cm), coronary heart disease (yes/no), physical activity (kcal/wk), alcohol use (six categories), and consumption of carbohydrate (% energy), protein (% energy), red meat (servings/week), whole-fat dairy foods (6 categories), low-fat dairy foods (five categories), and total energy (kcal/d).
# Participants were followed by means of annual examinations for 10 years with interim and subsequent 6-month telephone contacts. Ives et al., 5 Ann. Epidemiol. […] At each visit, detailed medication information was obtained using medication inventories. At baseline, study interviewers visited participants in their homes and asked to see all prescription medications they had taken in the previous 2 weeks. At follow-up exams, participants brought to clinic all prescription medications taken in the previous 2 weeks. Drug names, doses, and frequencies were coded according to prescription medication Medispan files.
# Relationships between phospholipid fatty acids were evaluated using Spearman correlation. Trans-palmitoleate levels were evaluated in sex-specific quintiles as indicator variables and continuously per SD difference. Independent demographic and lifestyle determinants of trans-palmitoleate were evaluated using multivariable-adjusted linear regression with trans-palmitoleate as the dependent variable. Multivariable-adjusted relationships of trans-palmitoleate with metabolic risk factors (transformed for normality as appropriate) were evaluated using linear regression with trans-palmitoleate as the independent variable. Quintiles were evaluated as ordinal variables to assess trend, to assess effect modification using the Wald test for a multiplicative interaction term, and to assess differences in baseline characteristics by means of linear or logistic regression. […] To minimize potential confounding, covariates were selected based on biologic interest, being well-established risk factors for metabolic risk, or associations with exposures/outcomes in the present cohort. […] Analyses were performed using Stata10.1 (College Station, Tex.), two-tailed alpha=0.05.
# [2] = system: 327 generally healthy women in the Nurses' Health Study; experiment: Nurses' Health Study validation cohort: erythrocyte and plasma trans-palmitoleate versus metabolic risk factors; assay type: in vivo, human; conditions: multivariable-adjusted level across quartiles
# Method: For independent validation, we evaluated the association of trans-palmitoleate measured in erythrocyte membranes and plasma (Sun et al., 88 Am. J. Clin. Nutr, 216 (2008)), with metabolic risk factors in a cohort of 327 generally healthy women, age=60.4±6.1 years, in the Nurses' Health Study (NHS). Relationships were evaluated for HDL-C, total:HDL-C, interleukin-6, CRP, and hemoglobinAlc. Because many samples were nonfasting, triglycerides and LDL-C were not evaluated; the number of subjects was too small to evaluate incident diabetes. Multivariable models were adjusted for age, smoking, physical activity, alcohol intake, family history, hypertension, hormone use, fasting status, and dietary carbohydrate, protein, polyunsaturated fats, saturated fat, dietary fiber, and total energy. We also evaluated correlations of trans-palmitoleate levels in plasma vs. erythrocytes in NHS (Spearman correlation[r]=0.74); and in phospholipids vs. triglycerides in CHS (n=104; r=0.54).
# [3] = erythrocyte trans-palmitoleate, first value
# [4] = erythrocyte trans-palmitoleate, second value
# [5] = plasma trans-palmitoleate, first value
# [6] = plasma trans-palmitoleate, second value
smiles,measurement,setting,value
"CCCCCC/C=C/CCCCCCCC(=O)O [trans-palmitoleate, trans-C16:1n7-palmitoleic acid]",extreme-quintile RR of new-onset diabetes,[1]; additional adjustment for levels of both 15:0 and 17:0,0.39
same,extreme-quintile RR of incident diabetes,[1]; additional adjustment for vaccenic acid (trans-18:1n-7),0.43
same,extreme-quintile RR of incident diabetes,[1]; men,0.29
same,RR of diabetes per SD,"[1]; per each higher SD of the plasma phospholipid fatty acid, multivariable-adjusted (covariates as in Table 4)",0.72
same,multivariable-adjusted RR of diabetes lower per each higher SD,[1]; per each higher SD of trans-palmitoleate,28%
same,No. of incident cases of diabetes mellitus,"[1]; quintile I, 5,595 person-years of follow-up",93
same,"Hazard ratio (RR) of incident diabetes, age- and sex-adjusted",[1]; quintile II vs quintile I,0.84
same,"Hazard ratio (RR) of incident diabetes, multivariate-adjusted",[1]; quintile II vs quintile I,0.79
same,No. of incident cases of diabetes mellitus,"[1]; quintile II, 5,435 person-years of follow-up",68
same,"Hazard ratio (RR) of incident diabetes, age- and sex-adjusted",[1]; quintile III vs quintile I,0.88
same,"Hazard ratio (RR) of incident diabetes, multivariate-adjusted",[1]; quintile III vs quintile I,0.89
same,No. of incident cases of diabetes mellitus,"[1]; quintile III, 5,556 person-years of follow-up",59
same,"Hazard ratio (RR) of incident diabetes, age- and sex-adjusted",[1]; quintile IV vs quintile I,0.44
same,"Hazard ratio (RR) of incident diabetes, multivariate-adjusted",[1]; quintile IV vs quintile I,0.41
same,No. of incident cases of diabetes mellitus,"[1]; quintile IV, 5,811 person-years of follow-up",46
same,"Hazard ratio (RR) of incident diabetes, age- and sex-adjusted",[1]; quintile V vs quintile I,0.36
same,"Hazard ratio (RR) of incident diabetes, multivariate-adjusted",[1]; quintile V vs quintile I,0.38
same,No. of incident cases of diabetes mellitus,"[1]; quintile V, 5,469 person-years of follow-up",38
same,extreme-quintile RR of incident diabetes,[1]; women,0.41
same,CRP,[2]; [3],3.3 mg/L
same,hemoglobinAlc,[2]; [3],5.92
same,interleukin-6 (IL-6),[2]; [3],2.3 pg/mL
same,total:HDL-C,[2]; [3],4.21
same,CRP,[2]; [4],2.1 mg/L
same,hemoglobinAlc,[2]; [4],5.66
same,interleukin-6 (IL-6),[2]; [4],1.8 pg/mL
same,total:HDL-C,[2]; [4],3.87
same,HDL-C,[2]; [5],56.5 mg/dL
same,hemoglobinAlc,[2]; [5],5.88%
same,total:HDL-C,[2]; [5],4.28
same,HDL-C,[2]; [6],61.7 mg/dL
same,hemoglobinAlc,[2]; [6],5.64%
same,total:HDL-C,[2]; [6],3.63

# From patent publication US9987243B2, “Use of trans-palmitoleate in identifying and treating metabolic disease” (Trustees of Tufts College, priority 2010, dated 2018)
